Molecules are shown by their SMILES. pKi: −log10 of the molar value.

The experiment has as its target radiolabeled Rolipram of rat brain homogenates. Description: displacement of radiolabeled Rolipram in rat brain homogenates, in vitro (Eur. J. Pharmacol. 127, 105-115 (1986)). To be noted: 3H-rolipram tracer, IC50 converted: Ki = IC50/[1+(L/KD)]. In kind it is binding. The procedure: The action on the central nervous system is determined in vitro by measuring the displacement capacity of radiolabeled Rolipram of rat brain homogenates (Eur. J. Pharmacol., Vol. 127, 105-115 (1986)). The IC50 values (that concentration in which 50% inhibiting action occurs) were converted into inhibition constant Ki, which is calculated according to the formula below: […]
in which L means the concentration of the radioactive tracer and KD means the dissociation constant of the ^3 H-rolipram bond, which is determined separately.
A word on the pKi: it is the negative decadic logarithm of the Ki, by convention in mol/L. Higher therefore signals a low Ki. `COc1ccc(C2(C)CCC(=O)O2)cc1OC1CCC1` (racemic) [cyclobutyl, Racemate, (R,S)-5-(3-cyclobutyloxy-4-methoxyphenyl)-5-methyl-dihydro-2-furanone] had a negative-log Ki (pKi) of 9.42. The compound `COc1ccc(C2(C)CCC(=O)O2)cc1OC1CCCC1` (racemic) [cyclopentyl, Racemate, (R,S)-5-(3-cyclopentyloxy-4-methoxyphenyl)-5-methyl-dihydro-2-furanone] had a pKi of 9.30. The pKi values of the last two compounds are within 0.2 log units of each other.

Turning to `COc1ccc(C2(C)CCC(=O)O2)cc1OCC1CC1` (racemic) [cyclopropylmethyl, Racemate, (R,S)-5-(3-cyclopropylmethoxy-4-methoxyphenyl)-5-methyl-dihydro-2-furanone], the pKi is 9.68. To `COc1ccc(C2(C)CCC(=O)O2)cc1OCC(C)C` (racemic) [isobutyl, Racemate, (R,S)-5-(3-isobutyloxy-4-methoxyphenyl)-5-methyl-dihydro-2-furanone] belongs 9.32. Compound `CCCOc1cc(C2(C)CCC(=O)O2)ccc1OC` (racemic) [propyl, Racemate, (R,S)-5-(4-methoxy-3-propoxyphenyl)-5-methyl-dihydro-2-furanone] gave a pKi of 9.13. Regarding `COc1ccc([C@@]2(C)CCC(=O)O2)cc1OC1CCC1` [cyclobutyl, (R)-(+)-enantiomer, (R)-(+)-5-(3-cyclobutyloxy-4-methoxyphenyl)-5-methyl-dihydro-2-furanone], the pKi was 8.72. The figure for `COc1ccc([C@]2(C)CCC(=O)O2)cc1OC1CCC1` [cyclobutyl, (S)-(-)-enantiomer, (S)-(-)-5-(3-cyclobutyloxy-4-methoxyphenyl)-5-methyl-dihydro-2-furanone] is 9.70; for `COc1ccc([C@@]2(C)CCC(=O)O2)cc1OC1CCCC1` [cyclopentyl, (R)-(+)-enantiomer, (R)-(+)-5-(3-cyclopentyloxy-4-methoxyphenyl)-5-methyl-dihydro-2-furanone] it is 8.55; for `COc1ccc([C@]2(C)CCC(=O)O2)cc1OC1CCCC1` [cyclopentyl, (S)-(-)-enantiomer, (S)-(-)-5-(3-cyclopentyloxy-4-methoxyphenyl)-5-methyl-dihydro-2-furanone] it is 9.55. In turn, `COc1ccc([C@@]2(C)CCC(=O)O2)cc1OCC1CC1` [cyclopropylmethyl, (R)-(+)-enantiomer, (R)-(+)-5-(3-cyclopropylmethoxy-4-methoxyphenyl)-5-methyl-dihydro-2-furanone] showed a pKi of 8.66. To `COc1ccc([C@]2(C)CCC(=O)O2)cc1OCC1CC1` [cyclopropylmethyl, (S)-(-)-enantiomer, (S)-(-)-5-(3-cyclopropylmethoxy-4-methoxyphenyl)-5-methyl-dihydro-2-furanone] belongs 9.89. To `COc1ccc([C@@]2(C)CCC(=O)O2)cc1OCC(C)C` [isobutyl, (R)-(+)-enantiomer, (R)-(+)-5-(3-isobutyloxy-4-methoxyphenyl)-5-methyl-dihydro-2-furanone] belongs 8.64; to `COc1ccc([C@]2(C)CCC(=O)O2)cc1OCC(C)C` [isobutyl, (S)-(-)-enantiomer, (S)-(-)-5-(3-isobutyloxy-4-methoxyphenyl)-5-methyl-dihydro-2-furanone], 9.60. The compound `CCCOc1cc([C@@]2(C)CCC(=O)O2)ccc1OC` [propyl, (R)-(+)-enantiomer, (R)-(+)-5-(4-methoxy-3-propoxyphenyl)-5-methyl-dihydro-2-furanone] had a pKi of 8.14. Compound `CCCOc1cc([C@]2(C)CCC(=O)O2)ccc1OC` [propyl, (S)-(-)-enantiomer, (S)-(-)-5-(4-methoxy-3-propoxyphenyl)-5-methyl-dihydro-2-furanone] had a pKi of 9.33.

The values are drawn from patent US6011060A, “Chiral phenyldihydrofuranones as PDE-IV inhibitors” (Schering Aktiengesellschaft, priority 1996, dated 2000).
